pIC50, pKd: −log10 of the molar value. Like-named read-outs stand apart in the source and are kept apart here.
Columns and labels:
[1] = system: Akt phosphorylated at Ser473 in PC-3 cells; experiment: Cellular assay: phosphorylation of Akt (Ser473) in PC-3 cells, MSD ELISA; type: cell-based; settings: 60 min compound incubation, read-out: IC50 pAkt_S473
Procedure: (§1) Cellular activity of PI3Kβ inhibitors was determined by quantifying the phosphorylation of Akt in PC-3 cells. Akt phosphorylated at Ser473 and Thr308 were measured using an enzyme-linked immunosorbent assay (ELISA; Meso Scale Discovery (MSD), Gaithersburg, Md.) and specific primary antibodies from MSD.
(§2) On day 1, PC3 cells (ATCC #[…]) were seeded into PerkinElmer MW96 plates at 25.000 cells per well, in 75 μl complete culture medium (DMEM high glucose, AQmedia™, D0819, Sigma-Aldrich) containing 10% heat inactivated FCS and incubated at 37° C., […] during 24 hours. On day 2, compound or DMSO (0.3%) was added and cells were further incubated for 60 min at 37° C., 5% CO2 in a total volume of 100 μl of medium.
(§3) The phosphoprotein assay was executed according to vendor instructions in the Phospho-Akt (Ser473) Assay Whole Cell Lysate Kit (MSD #K15100D-3) and the Phospho-Akt (Thr308) Assay Whole Cell Lysate Kit (MSD #K151DYD-3) using the lysis, blocking and wash buffer provided.
(§4) Briefly, at the end of the cell treatment period, media were removed by aspiration and adherent cells were lysed in 50 μl ice-cold lysis buffer. MSD plates are supplied pre-coated with capture antibodies for Phospho-Akt (Ser473 and Thr308). After blocking, lysates from tissue culture plates were added and plates were washed. Then, a solution containing the detection antibody (anti-total Akt conjugated with an electrochemiluminescent compound-MSD Sulfo-tag label) was added. The signals were detected using an MSD SECTOR Imager 6000 and are proportional to the phospho-Akt titres.
(§5) Data were processed. The percentage of inhibition was plotted against the log concentration of test compounds, and the sigmoidal log concentration-effect curve of best fit was calculated by nonlinear regression analysis. From these concentration-response curves, the IC50 values were calculated. Five concentrations were used for curve fitting.

[2] = system: Akt phosphorylated at Thr308 in PC-3 cells; experiment: Cellular assay: phosphorylation of Akt (Thr308) in PC-3 cells, MSD ELISA; type: cell-based; settings: 60 min compound incubation, read-out: IC50 pAkt_Thr308
Procedure: as §1, §2, §3, §4, §5

PIK3Cγ_h = biological target: T1, PIK3Cγ_h (Homo sapiens, UniProt P48736); experiment: Enzyme binding assay (KINOMEscan); settings: DiscoveRx
T1 construct: purchased DiscoveRx Corporation
T1 sequence (P48736 whole entry): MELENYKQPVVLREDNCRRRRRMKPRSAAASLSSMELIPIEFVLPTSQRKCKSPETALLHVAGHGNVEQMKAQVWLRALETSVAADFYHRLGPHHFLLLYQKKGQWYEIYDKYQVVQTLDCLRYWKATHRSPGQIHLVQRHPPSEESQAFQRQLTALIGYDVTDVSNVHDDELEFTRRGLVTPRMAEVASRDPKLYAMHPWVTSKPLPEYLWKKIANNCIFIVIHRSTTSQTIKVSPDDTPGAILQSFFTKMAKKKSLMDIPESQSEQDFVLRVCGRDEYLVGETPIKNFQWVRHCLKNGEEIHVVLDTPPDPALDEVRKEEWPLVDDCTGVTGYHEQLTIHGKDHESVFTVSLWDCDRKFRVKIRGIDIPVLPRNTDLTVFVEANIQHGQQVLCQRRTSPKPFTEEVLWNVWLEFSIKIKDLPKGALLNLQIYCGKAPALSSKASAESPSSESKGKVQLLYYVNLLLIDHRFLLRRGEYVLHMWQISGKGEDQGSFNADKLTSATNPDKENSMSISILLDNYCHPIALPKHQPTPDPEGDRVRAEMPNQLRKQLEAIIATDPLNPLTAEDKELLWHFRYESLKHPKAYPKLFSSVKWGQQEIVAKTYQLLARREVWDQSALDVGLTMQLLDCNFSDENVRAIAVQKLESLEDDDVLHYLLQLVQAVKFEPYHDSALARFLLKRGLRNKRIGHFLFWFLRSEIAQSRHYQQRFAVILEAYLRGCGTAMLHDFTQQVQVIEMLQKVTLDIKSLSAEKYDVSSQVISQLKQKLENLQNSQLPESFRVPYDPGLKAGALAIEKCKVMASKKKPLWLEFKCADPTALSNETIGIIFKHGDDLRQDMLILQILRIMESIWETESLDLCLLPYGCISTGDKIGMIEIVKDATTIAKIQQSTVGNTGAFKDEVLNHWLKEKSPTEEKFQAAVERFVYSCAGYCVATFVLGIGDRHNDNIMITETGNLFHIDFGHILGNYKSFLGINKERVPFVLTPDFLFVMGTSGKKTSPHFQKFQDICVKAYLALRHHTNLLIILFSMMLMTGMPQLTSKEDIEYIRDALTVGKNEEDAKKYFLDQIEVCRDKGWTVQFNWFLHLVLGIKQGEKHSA
Procedure: (§6) Enzyme Binding Assays (KINOMEscan®)
(§7) Kinase enzyme binding affinities of compounds disclosed herein were determined using the KINOMEscan technology performed by DiscoveRx Corporation, San Diego, Calif., USA (www.kinomescan.com). Table A reports the obtained Kd values (nM), with the Kd being the inhibitor binding constant: […]

PIK3Cβ_h = biological target: T2, PIK3Cβ_h (Homo sapiens, UniProt P42338); experiment: Enzyme binding assay (KINOMEscan); settings: DiscoveRx
T2 construct: purchased DiscoveRx Corporation
T2 sequence (P42338 whole entry): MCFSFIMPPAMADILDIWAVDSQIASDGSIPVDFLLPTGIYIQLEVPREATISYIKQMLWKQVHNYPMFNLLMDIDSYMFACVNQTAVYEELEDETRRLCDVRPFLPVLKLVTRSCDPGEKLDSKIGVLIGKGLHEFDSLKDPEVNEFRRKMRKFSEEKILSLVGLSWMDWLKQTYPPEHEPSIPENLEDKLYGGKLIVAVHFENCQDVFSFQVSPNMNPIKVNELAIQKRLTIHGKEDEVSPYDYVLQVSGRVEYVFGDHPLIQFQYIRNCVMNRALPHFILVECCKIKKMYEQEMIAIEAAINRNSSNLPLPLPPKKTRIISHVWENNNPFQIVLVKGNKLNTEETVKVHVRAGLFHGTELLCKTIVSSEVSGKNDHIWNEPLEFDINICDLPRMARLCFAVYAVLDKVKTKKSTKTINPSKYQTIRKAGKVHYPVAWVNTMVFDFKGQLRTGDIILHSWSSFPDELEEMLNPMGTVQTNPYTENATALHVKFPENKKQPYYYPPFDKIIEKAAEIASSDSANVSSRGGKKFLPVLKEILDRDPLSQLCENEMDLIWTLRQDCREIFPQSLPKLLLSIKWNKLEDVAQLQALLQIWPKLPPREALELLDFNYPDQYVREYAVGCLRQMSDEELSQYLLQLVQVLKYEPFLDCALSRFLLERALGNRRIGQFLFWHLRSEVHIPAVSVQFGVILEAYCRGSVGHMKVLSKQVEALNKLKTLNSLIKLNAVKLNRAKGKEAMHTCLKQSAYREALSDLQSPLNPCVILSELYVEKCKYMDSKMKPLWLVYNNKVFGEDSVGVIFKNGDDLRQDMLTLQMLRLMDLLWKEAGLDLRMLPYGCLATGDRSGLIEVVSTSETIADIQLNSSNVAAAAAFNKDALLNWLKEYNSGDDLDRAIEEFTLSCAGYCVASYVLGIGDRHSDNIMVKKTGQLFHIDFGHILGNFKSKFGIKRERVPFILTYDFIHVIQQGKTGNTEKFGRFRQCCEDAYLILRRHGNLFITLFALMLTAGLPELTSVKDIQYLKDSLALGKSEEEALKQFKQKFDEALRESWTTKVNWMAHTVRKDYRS
Procedure: as §6, §7

PIK3Cδ_h = biological target: T3, PIK3Cδ_h (Homo sapiens, UniProt O00329); experiment: Enzyme binding assay (KINOMEscan); settings: DiscoveRx
T3 construct: purchased DiscoveRx Corporation
T3 sequence (O00329 1-1044): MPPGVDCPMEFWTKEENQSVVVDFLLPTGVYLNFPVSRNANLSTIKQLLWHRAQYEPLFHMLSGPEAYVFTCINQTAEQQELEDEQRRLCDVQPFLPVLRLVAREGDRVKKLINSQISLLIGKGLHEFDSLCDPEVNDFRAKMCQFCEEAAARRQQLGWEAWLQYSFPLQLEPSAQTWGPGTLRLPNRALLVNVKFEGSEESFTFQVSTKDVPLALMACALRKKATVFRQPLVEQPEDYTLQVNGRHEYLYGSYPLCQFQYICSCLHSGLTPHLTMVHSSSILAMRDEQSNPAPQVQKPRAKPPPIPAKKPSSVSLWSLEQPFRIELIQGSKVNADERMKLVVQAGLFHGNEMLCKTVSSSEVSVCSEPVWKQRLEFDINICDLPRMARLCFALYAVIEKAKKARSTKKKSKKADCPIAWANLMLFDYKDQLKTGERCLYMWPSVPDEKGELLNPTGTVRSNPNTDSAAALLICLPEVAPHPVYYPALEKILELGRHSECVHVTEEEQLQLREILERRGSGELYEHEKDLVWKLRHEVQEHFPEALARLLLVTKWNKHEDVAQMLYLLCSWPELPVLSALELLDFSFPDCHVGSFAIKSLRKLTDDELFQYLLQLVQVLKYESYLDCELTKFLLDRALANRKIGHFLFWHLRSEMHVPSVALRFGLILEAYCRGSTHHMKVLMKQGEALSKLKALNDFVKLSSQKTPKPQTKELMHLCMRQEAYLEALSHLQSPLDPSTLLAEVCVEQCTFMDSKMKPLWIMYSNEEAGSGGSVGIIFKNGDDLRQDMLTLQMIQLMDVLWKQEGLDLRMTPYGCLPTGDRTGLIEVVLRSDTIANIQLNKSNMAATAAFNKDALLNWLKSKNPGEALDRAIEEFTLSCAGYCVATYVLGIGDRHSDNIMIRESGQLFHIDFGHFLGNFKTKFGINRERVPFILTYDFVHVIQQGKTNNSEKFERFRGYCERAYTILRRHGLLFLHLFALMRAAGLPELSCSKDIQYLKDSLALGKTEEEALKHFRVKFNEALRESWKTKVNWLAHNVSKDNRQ
Procedure: as §6, §7

MTOR_h = biological target: T4, MTOR_h (Homo sapiens, UniProt P42345); experiment: Enzyme binding assay (KINOMEscan); settings: DiscoveRx
T4 construct: purchased DiscoveRx Corporation
Procedure: as §6, §7

PIK3Cα_h = biological target: T5, PIK3Cα_h (Homo sapiens, UniProt P42336); experiment: Enzyme binding assay (KINOMEscan); settings: DiscoveRx
T5 construct: purchased DiscoveRx Corporation
T5 sequence (P42336 whole entry): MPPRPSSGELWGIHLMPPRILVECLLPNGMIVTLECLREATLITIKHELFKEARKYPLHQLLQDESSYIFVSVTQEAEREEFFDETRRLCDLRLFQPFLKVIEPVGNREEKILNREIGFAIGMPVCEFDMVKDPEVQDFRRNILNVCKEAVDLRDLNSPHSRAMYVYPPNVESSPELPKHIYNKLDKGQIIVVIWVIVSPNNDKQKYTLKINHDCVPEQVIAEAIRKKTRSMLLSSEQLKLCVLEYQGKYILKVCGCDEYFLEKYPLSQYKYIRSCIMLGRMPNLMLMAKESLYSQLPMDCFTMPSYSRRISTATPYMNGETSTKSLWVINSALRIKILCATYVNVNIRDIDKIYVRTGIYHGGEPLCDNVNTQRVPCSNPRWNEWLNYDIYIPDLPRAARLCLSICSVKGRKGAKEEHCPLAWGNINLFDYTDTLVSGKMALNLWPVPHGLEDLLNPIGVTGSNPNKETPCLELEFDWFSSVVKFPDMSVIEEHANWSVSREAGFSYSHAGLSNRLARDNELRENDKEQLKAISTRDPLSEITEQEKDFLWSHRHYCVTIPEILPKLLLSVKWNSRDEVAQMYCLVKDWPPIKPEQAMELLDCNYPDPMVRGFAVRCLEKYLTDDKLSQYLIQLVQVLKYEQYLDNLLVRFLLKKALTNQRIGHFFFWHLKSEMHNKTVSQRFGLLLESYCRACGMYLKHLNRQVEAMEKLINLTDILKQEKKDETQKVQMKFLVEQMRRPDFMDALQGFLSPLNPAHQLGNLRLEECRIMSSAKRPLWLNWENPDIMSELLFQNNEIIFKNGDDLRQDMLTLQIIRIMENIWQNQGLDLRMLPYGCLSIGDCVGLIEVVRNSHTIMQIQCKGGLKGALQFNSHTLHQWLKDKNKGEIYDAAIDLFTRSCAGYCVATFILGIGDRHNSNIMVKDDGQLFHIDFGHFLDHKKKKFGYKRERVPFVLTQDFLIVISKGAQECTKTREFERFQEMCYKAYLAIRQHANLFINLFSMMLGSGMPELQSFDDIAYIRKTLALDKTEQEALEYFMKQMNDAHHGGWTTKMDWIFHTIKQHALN
Procedure: as §6, §7

| Compound | pIC50 [1] | pIC50 [2] | pKd (PIK3Cγ_h) | pKd (PIK3Cβ_h) | pKd (PIK3Cδ_h) | pKd (MTOR_h) | pKd (PIK3Cα_h) | pIC50 ([2]; Homo sapiens, PC-3, 1 h) | pIC50 ([1]; Homo sapiens, PC-3, 1 h) |
| --- | --- | --- | --- | --- | --- | --- | --- | --- | --- |
| Cc1c(Cc2c(CN3CCC4(CCS(=O)(=O)C4)C3)nc3ncc(N4CCOCC4)cn23)cccc1C(F)(F)F (single isomer, unassigned) [Compound 24a] | 6.46 | 6.77 | < 4.52 | 8.19 | 6.12 | < 4.52 | < 4.52 | – | – |
| Cc1nc2c(C(=O)O)nc(C3=CCOCC3)cn2c1Cc1cccc(C(F)(F)F)c1C [Compound 3] | – | – | < 4.52 | 8.85 | 6.33 | < 4.52 | 4.94 | < 6.29 | – |
| Cc1nc2c(CO)nc(C3=CCOCC3)cn2c1Cc1cccc(C(F)(F)F)c1C [Compound 4] | – | – | 4.83 | 8.12 | 5.52 | < 4.52 | 4.92 | 6.32 | < 6.29 |
| Cc1c(Cc2c(CN3C[C@@H](C)N[C@@H](C)C3)nc3cnc(N4CCOCC4)cn23)cccc1C(F)(F)F [Compound 11] | – | – | < 4.52 | 6.92 | 5.09 | < 4.52 | < 4.52 | < 6.29 | < 6.29 |
| Cc1c(Cc2c(CNCCO)nc3cnc(N4CCOCC4)cn23)cccc1C(F)(F)F [Compound 12] | – | – | < 4.52 | 7.17 | 5.26 | < 4.52 | < 4.52 | < 6.29 | < 6.29 |
| Cc1c(Cc2c(CC(=O)N3C[C@@H](C)N[C@@H](C)C3)nc3cnc(N4CCOCC4)cn23)cccc1C(F)(F)F [Compound 14] | – | – | < 4.52 | 6.81 | 4.82 | < 4.52 | < 4.52 | < 6.29 | < 6.29 |
| Cc1c(Cc2c(CC(=O)N3CC(CO)C3)nc3cnc(N4CCOCC4)cn23)cccc1C(F)(F)F [Compound 15] | – | – | < 4.52 | 6.85 | 4.95 | < 4.52 | < 4.52 | – | – |
| Cc1c(Cc2c(CO)nc3ncc(N4CCOCC4)cn23)cccc1C(F)(F)F [Compound 18] | – | – | 4.82 | 8.85 | 6.35 | 4.75 | 5.46 | 7.37 | 7.14 |
| Cc1c(Cc2c(CN3CCCC4(CNC4)C3)nc3ncc(N4CCOCC4)cn23)cccc1C(F)(F)F [Compound 20] | – | – | < 4.52 | 7.12 | 5.14 | < 4.52 | < 4.52 | < 6.29 | < 6.29 |
| Cc1c(Cc2c(CN3CCC4(CCS(=O)(=O)C4)C3)nc3ncc(N4CCOCC4)cn23)cccc1C(F)(F)F (stereo not drawn) [Compound 24] | – | – | < 4.52 | 7.96 | 5.85 | < 4.52 | 5.59 | ~6.76 | 6.54 |
| Cc1c(F)cccc1Cc1c(CO)nc2ncc(N3CCOCC3)cn12 [Compound 25] | – | – | 5.14 | 8.05 | 6.12 | 5.25 | 5.23 | 6.92 | 6.71 |
| Cc1c(Cc2c(CN3CCC4(CCCS4(=O)=O)C3)nc3ncc(N4CCOCC4)cn23)cccc1C(F)(F)F (stereo not drawn) [Compound 26] | – | – | < 4.52 | 8.17 | 6.16 | < 4.52 | 5.38 | 7.15 | 6.32 |
| Cc1nc2ccc(N3CCOCC3)cn2c1Cc1cccc(C(F)(F)F)c1C [Compound 27] | – | – | < 4.52 | 6.44 | 5.59 | < 4.52 | 5.02 | 6.38 | < 6.29 |
| Cc1c(Cc2c(CF)nc3ccc(N4CCOCC4)cn23)cccc1C(F)(F)F [Compound 29] | – | – | 4.84 | 6.90 | 5.67 | < 4.52 | 5.16 | 7.30 | 6.81 |
| CCOC(=O)Cc1nc2ccc(N3CCOCC3)cn2c1Cc1cccc(C(F)(F)F)c1C [Compound 30] | – | – | < 4.52 | 6.20 | 5.24 | < 5.00 | < 5.00 | – | – |

More lines, now with the values ahead:

| pIC50 [1] | pIC50 [2] | pKd (PIK3Cγ_h) | pKd (PIK3Cβ_h) | pKd (PIK3Cδ_h) | pKd (MTOR_h) | pKd (PIK3Cα_h) | pIC50 ([2]; Homo sapiens, PC-3, 1 h) | pIC50 ([1]; Homo sapiens, PC-3, 1 h) | Compound |
| --- | --- | --- | --- | --- | --- | --- | --- | --- | --- |
| – | – | < 4.52 | 7.70 | 5.87 | < 4.52 | < 4.52 | < 6.29 | 6.32 | Cc1c(Cc2c(CN3CCCC4(CNC4)C3)nc3ccc(N4CCOCC4)cn23)cccc1C(F)(F)F [Compound 31] |
| – | – | 5.07 | 8.66 | 6.49 | 4.56 | 5.14 | ~6.75 | 6.72 | Cc1c(Cc2c(CN3CC4(CCN4)C3)nc3ccc(N4CCOCC4)cn23)cccc1C(F)(F)F [Compound 32] |
| – | – | < 4.52 | 8.52 | 6.50 | < 4.52 | 6.23 | 7.82 | 7.80 | Cc1c(Cc2c(CN3CC4(C3)CS(=O)(=O)C4)nc3ccc(N4CCOCC4)cn23)cccc1C(F)(F)F [Compound 33] |
| – | – | < 4.52 | 8.05 | 6.13 | 4.63 | 4.77 | 7.15 | 6.96 | Cc1c(Cc2c(CNCCO)nc3ccc(N4CCOCC4)cn23)cccc1C(F)(F)F [Compound 34] |
| – | – | < 4.52 | 8.24 | 6.24 | 4.66 | 4.65 | 7.05 | 7.13 | Cc1c(Cc2c(CNCCCO)nc3ccc(N4CCOCC4)cn23)cccc1C(F)(F)F [Compound 35] |
| – | – | < 4.52 | 7.66 | 5.67 | < 4.52 | < 4.52 | ~6.88 | ~6.65 | Cc1c(Cc2c(CN(C)CCO)nc3ccc(N4CCOCC4)cn23)cccc1C(F)(F)F [Compound 36] |
| – | – | < 4.52 | 7.70 | 5.84 | 4.62 | 4.99 | ~6.55 | 6.55 | CC(=O)N(CCO)Cc1nc2ccc(N3CCOCC3)cn2c1Cc1cccc(C(F)(F)F)c1C [Compound 37] |
| – | – | 5.36 | 7.15 | 5.69 | 5.64 | 5.53 | < 6.29 | < 6.29 | Cc1c(Cc2c(CO)nc3c(-c4ccn[nH]4)cc(N4CCOCC4)cn23)cccc1C(F)(F)F [Compound 38] |

— patent publication US10894793B2, “Bicyclic pyridine, pyrazine, and pyrimidine derivatives as PI3K beta inhibitors” (Janssen Pharmaceutica NV, priority 2016, dated 2021)
